Measured values reported in patent US20240245717A1, “ANTIVIRAL COMPOUNDS, COMPOSITIONS, AND USES THEREOF” (priority 2022, published 2024).
“And” between values parts separate entries of the source, which are not always exact repeats. Identical values can stand only once.

Tests used:
SARS-CoV-2 WAS-Calu-3 = test system: SARS-CoV-2 WAS-Calu-3; set-up: species or system Golden Syrian Hamsters; conditions: hamster, in vivo
[1] = test system: Pseudovirus rVSV-SARS-CoV-2; assay: microbe, parasite or virus in culture; format: cell-based; conditions: for IC50: Pseudovirus, Vero, 24 h, read-out: NT50
[2] = test system: SARS-CoV-2 isolate Hong Kong/VM20001061/2020; assay: microbe, parasite or virus in culture; format: cell-based; set-up: % of control: dose or concentration left out as unconfirmed; conditions: 48 hours

| Structure (SMILES) | body weight of infected, treated hamsters (SARS-CoV-2 WAS-Calu-3) | viral titers from harvested lungs (SARS-CoV-2 WAS-Calu-3) | neutralization of SARS CoV-2 infection in vitro [1] | IC50 [1] [mg/mL] | % of control [2] | inhibition at 3120 µg/mL ([2]; Severe acute respiratory syndrome coronavirus 2, HEK-293T, 3.12 mg/ml) [%] |
| --- | --- | --- | --- | --- | --- | --- |
| CCCCOP(=O)(O)OC[C@H]1O[C@@H](n2ccc(N)nc2=O)C[C@@H]1OP(=O)(O)OCCCC [Nu-8, ((2R,3S,5R)-5-(4-amino-2-oxopyrimidin-1(2H)-yl)-3-((butoxyoxidophosphor-yl)oxy)tetrahydrofuran-2-yl)methyl butyl phosphate] | began to regain body weight | no virus detected |  |  |  |  |
| CCCCOP(=O)(O)OC[C@H]1O[C@@H](n2cnc3c(N)ncnc32)[C@H](OC)[C@@H]1OP(=O)(O)OCCCC [Nu-11, (2R,3R,4R,5R)-5-(6-aminopurin-9-yl)-3-((butoxy(hydroxy)phosphoryl)oxy)-4-methoxytetrahydrofuran-2-yl)methyl butyl hydrogen phosphate] |  |  | neutralize SARS CoV-2 infection in vitro | 1.15 |  |  |
| CCCCOP(=O)(O)OC[C@H]1O[C@@H](n2cc(C)c(=O)[nH]c2=O)C[C@@H]1OP(=O)(O)OCCCC [Nu-3, butyl-phosphate-5′-thymidine-3′-phosphate-butyl] | began to regain body weight | did not show any measurable viral particles, with the exception of one hamster |  |  |  |  |
| CCCCOP(=O)(O)OC[C@H]1O[C@@H](n2ccc(N)nc2=O)[C@H](OC)[C@@H]1OP(=O)(O)OCCCC [Nu-10, ((2R,3R,4R,5R)-5-(4-amino-2-oxopyrimidin-1(2H)-yl)-3-((butoxy(hydroxy)phosphoryl)oxy)-4-methoxytetrahydrofuran-2-yl) methyl butyl hydrogen phosphate] |  |  | neutralize SARS CoV-2 infection in vitro | 21.8 | 3% and 8% | 97 |
